In series [1] the test system is MCF-7. Description: Antiproliferative activity, SRB assay, MCF-7. Type of series: cell-based, human. The method, then: (§1) Antiproliferative activity was evaluated in various human cancer cell lines (MCF-7, PANC-1, and Caco-2) as well as a normal cell line (human dermal fibroblasts). All cell lines were obtained from the American Type Culture Collection (ATCC, Manassas, VA, USA). MCF-7, PANC-1, and Caco-2 cells were cultured in high glucose Dulbecco’s modified Eagle medium (DMEM; Eurobio Scientific, Les Ulis, France). Fibroblasts were cultured in Iscove’s modified Dulbecco’s medium (IMDM; Eurobio Scientific, Les Ulis, France). All media were supplemented with 10% fetal bovine serum, 1% L-glutamine, and 1% penicillin/streptomycin. The cell lines were maintained at 37 °C in a 5% CO2 atmosphere with 95% humidity. For the cytotoxicity experiments, cells were cultured in 96-well plates at density of 6 × 10^3 cells per well to ensure exponential growth throughout the experimental period and to ensure a linear relationship between absorbance and cell number when analyzed by the sulforhodamine B (SRB) assay. […] One hundred microliters of 10 mM Tris base solution was then added to each well, and the absorbance was recorded on a microplate reader (BioTek Instruments, Winooski, VT, USA) at 570 nm. Results were expressed as % cell viability compared to the control (untreated cells). […]

The subject of series [2] is PANC-1. Description: Antiproliferative activity, SRB assay, PANC-1. The series is classed as cell-based, human. Here is the method:
as §1
A general note: In SRB staining, fixed cells bind dye roughly in proportion to their protein.

Series [3] relates to Caco-2. Description: Antiproliferative activity, SRB assay, Caco-2. The series is classed as cell-based, human. Here is the method:
as §1

For series [4], the system named is human dermal fibroblasts. Description: Antiproliferative activity, SRB assay, normal cell line. The series is classed as cell-based. Conditions: Fibroblast, 72 h. The method, then:
as §1

Series [5] in a line: Pilot pharmacokinetic study after oral administration. The series is classed as in vivo. As to conditions: male, Balb/c, mouse, mice, oral gavage, 6 mg/kg TQ, plasma. Here is the method: Thirty male Balb/c mice (8–10 weeks old) were housed in plastic cages in an air-conditioned room with free access to food and water and were fasted overnight prior to the experiment. On the day of the experiment, animals were divided into two groups and each group was administered a single dose of 6 mg/kg TQ either as suspension in ultrapure water or in the form of TQ NPs (F2-NC) via oral gavage. At 1, 2, 4, 6, and 24 h post-administration, three animals from each group were randomly selected and euthanized by diethyl ether, and blood (~1 mL) was collected from the jugular vein into heparinized plastic tubes. Blood samples were left to sit for 45 min at room temperature then centrifuged at 5500 rpm for 30 min at room temperature. Approximately 0.5 mL of plasma was collected into microtubes, and plasma samples were stored at −80 °C until further analysis. The animal protocol for this work was approved by the Animal Care and Use Committee of Al-Zaytoonah University of Jordan (decision no. 1/5/2019–2020). All work was conducted in accordance with the Helsinki guidelines for animal research and all applicable Jordanian governmental rules and guidelines.
The system consisted of a Shimadzu LCMS-8030 quadrupole mass spectrometer (Kyoto, Japan) equipped with an electrospray ionization (ESI) source, and a Shimadzu Prominence 30A Ultra-Fast Liquid Chromatography system composed of a system controller, degasser, binary pump and auto-sampler. Samples were eluted on a C8 column (5 μm, 50 × 2.1 mm) coupled with a guard column (5 μm, 10 × 2.1 mm) at 20 °C. The isocratic mobile phase consisted of acetonitrile (ACN) and 0.2% formic acid (50:50, v/v) at a flow rate of 0.2 mL min^−1 and an injection volume of 20 μL. TQ samples were ionized by the ESI source in negative ion mode ([…] spray voltage). The dwell time was set to 50 ms and the probe temperature was 400 °C. Quantification was performed using multiple reaction monitoring (MRM) of the transitions at m/z 164.0→134.1.
TQ was dissolved in ACN to make a stock solution at 1 mg mL^−1. TQ working standard solutions were prepared by serial dilutions of the stock solution in the mobile phase. Calibration curve samples were prepared by spiking the appropriate TQ working standard solutions into blank plasma obtained from untreated mice to achieve concentrations from 2 to 1000 ng mL^−1.
To 100 μL of plasma (spiked with calibration curve samples or plasma extracted from treated mice), ethyl acetate (1 mL) was added and vortex mixed for 30 s. […] Samples were then injected into the LC-MS/MS system to quantify the plasma concentration of TQ at each time point. […] Plasma t1/2 was determined by fitting the elimination phase of the plots to the first-order model.

On the set-up of series [6]: method as in earlier work. As to conditions: cirsiliol from a formulation similar to F2-NC, cited from earlier work.

Where two headings read alike, the source gives them in different places.

Usually IC50 stands for the concentration needed to halve the response being measured. As usually defined, the AUC(0-inf) is the area under the concentration-time curve extrapolated to infinity. By Cmax is commonly meant the maximum level reached in the sampled fluid or tissue. By Tmax is commonly meant the time at which the peak concentration occurs. The half-life is how long it takes for the measured level to halve. A high value points to slow loss.

With `CC1=CC(=O)C(C(C)C)=CC1=O` [TQ, 2-isopropyl-5-methylbenzo-1,4-quinone], the IC50 in series [1] (Homo sapiens, MCF7, MCF-7, 72 h, SRB assay) was determined as 20.5 ± 3.7 µM; in series [2] (Homo sapiens, PANC-1, 72 h, SRB assay), 8.8 ± 2.2 µM; in series [3] (Homo sapiens, Caco-2, 72 h, SRB assay), 30.4 ± 0.5 µM; in series [4], 58.9 ± 10.3 µM. The figures for the “SI (selectivity index)” value in series [1] (IC50 in fibroblasts divided by IC50 in MCF-7), in series [2] (IC50 in fibroblasts divided by IC50 in PANC-1) and in series [3] (IC50 in fibroblasts divided by IC50 in Caco-2) were 2.9, 6.7 and 1.9, respectively. In series [5], this compound yielded an AUC(0-inf) of 4670 ± 508 ng·h/mL. Moreover, in series [5], the peak level (Cmax) was 388 ± 41.5 ng/mL. Also, in series [5], the Tmax turned out to be 4 h. This compound also had a half-life in series [5] (elimination phase first-order fit) of 5 h.

As to `COc1cc2oc(-c3ccc(O)c(O)c3)cc(=O)c2c(O)c1OC` [cirsiliol], the results for the cumulative release in series [6] (after 96 h) and in series [6] (within the first 48 h) were ~ 40% and ~ 20%, respectively.

Values taken from article PMC7560238, “Development of a Thymoquinone Polymeric Anticancer Nanomedicine through Optimization of Polymer Molecular Weight and Nanoparticle Architecture” (Pharmaceutics, 2020).
